According to PubChem BioAssay (NCI):
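GI50 is the concentration that inhibits growth by half. TGI denotes the concentration required for complete inhibition of growth.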

Experiments:
Assay in all cases: DTP human tumour cell line panel, 384-well format
HS 578T breast = tested on: HS 578T breast
SN12C renal = tested on: SN12C renal
SK-MEL-28 melanoma = tested on: SK-MEL-28 melanoma
SK-MEL-5 melanoma = tested on: SK-MEL-5 melanoma
HOP-92 NSCLC = tested on: HOP-92 NSCLC
TK-10 renal = tested on: TK-10 renal
SK-MEL-2 melanoma = tested on: SK-MEL-2 melanoma
A498 renal = tested on: A498 renal
U251 glioblastoma = tested on: U251 glioblastoma
DU-145 prostate = tested on: DU-145 prostate
EKVX NSCLC = tested on: EKVX NSCLC
A549 NSCLC = tested on: A549 NSCLC
T-47D breast = tested on: T-47D breast
NCI/ADR-RES ovarian = tested on: NCI/ADR-RES ovarian
MALME-3M melanoma = tested on: MALME-3M melanoma
OVCAR-5 ovarian = tested on: OVCAR-5 ovarian
UO-31 renal = tested on: UO-31 renal
RXF 393 renal = tested on: RXF 393 renal
SNB-75 CNS = tested on: SNB-75 CNS
KM12 colon = tested on: KM12 colon
CCRF-CEM leukemia = tested on: CCRF-CEM leukemia
UACC-257 melanoma = tested on: UACC-257 melanoma
HCC-2998 colon = tested on: HCC-2998 colon
SR leukemia = tested on: SR leukemia
NCI-H23 lung = tested on: NCI-H23 lung
CAKI-1 renal = tested on: CAKI-1 renal
OVCAR-4 ovarian = tested on: OVCAR-4 ovarian
BT-549 breast = tested on: BT-549 breast
HOP-62 NSCLC = tested on: HOP-62 NSCLC
NCI-H322M lung = tested on: NCI-H322M lung
HT29 colon = tested on: HT29 colon
PC-3 prostate = tested on: PC-3 prostate
NCI-H460 NSCLC = tested on: NCI-H460 NSCLC
NCI-H522 lung = tested on: NCI-H522 lung
SF-539 CNS = tested on: SF-539 CNS
MDA-MB-231 breast = tested on: MDA-MB-231 breast
COLO 205 colon = tested on: COLO 205 colon
HCT-15 colon = tested on: HCT-15 colon
SNB-19 CNS = tested on: SNB-19 CNS
NCI-H226 lung = tested on: NCI-H226 lung
MCF7 breast = tested on: MCF7 breast
HCT-116 colon = tested on: HCT-116 colon
OVCAR-3 ovarian = tested on: OVCAR-3 ovarian
M14 melanoma = tested on: M14 melanoma
MDA-MB-435 melanoma = tested on: MDA-MB-435 melanoma
786-0 renal = tested on: 786-0 renal
OVCAR-8 ovarian = tested on: OVCAR-8 ovarian
K-562 leukemia = tested on: K-562 leukemia
MDA-MB-468 breast = tested on: MDA-MB-468 breast
SF-268 CNS = tested on: SF-268 CNS
HL-60(TB) leukemia = tested on: HL-60(TB) leukemia
MOLT-4 leukemia = tested on: MOLT-4 leukemia
SF-295 CNS = tested on: SF-295 CNS
IGROV1 ovarian = tested on: IGROV1 ovarian
SW-620 colon = tested on: SW-620 colon
LOX IMVI melanoma = tested on: LOX IMVI melanoma
UACC-62 melanoma = tested on: UACC-62 melanoma
ACHN renal = tested on: ACHN renal
SK-OV-3 ovarian = tested on: SK-OV-3 ovarian

O=C(Nc1ccc(O)c(NS(=O)(=O)c2ccc(F)cc2)c1)c1ccc(-c2ccccc2)cc1
GI50 (HS 578T breast): 2.93 µM | TGI (HS 578T breast): 15.5 µM | GI50 (SN12C renal): 7.38 µM | TGI (SN12C renal): 19.7 µM | GI50 (SK-MEL-28 melanoma): 11.4 µM | TGI (SK-MEL-28 melanoma): 23.8 µM | GI50 (SK-MEL-5 melanoma): 4.13 µM | TGI (SK-MEL-5 melanoma): 15.3 µM | GI50 (HOP-92 NSCLC): 4.12 µM | TGI (HOP-92 NSCLC): 14.4 µM | GI50 (TK-10 renal): 3.61 µM | TGI (TK-10 renal): 11.8 µM | GI50 (SK-MEL-2 melanoma): 10.4 µM | TGI (SK-MEL-2 melanoma): 22.2 µM | GI50 (A498 renal): 3.57 µM | TGI (A498 renal): 15.1 µM | GI50 (U251 glioblastoma): 5.41 µM | TGI (U251 glioblastoma): 17.1 µM | GI50 (DU-145 prostate): 10.1 µM | TGI (DU-145 prostate): 21.8 µM | GI50 (EKVX NSCLC): 4.13 µM | TGI (EKVX NSCLC): 14 µM | GI50 (A549 NSCLC): 5.05 µM | TGI (A549 NSCLC): 17 µM | GI50 (T-47D breast): 8 µM | TGI (T-47D breast): 20.7 µM | GI50 (NCI/ADR-RES ovarian): 5.28 µM | TGI (NCI/ADR-RES ovarian): 17.5 µM | GI50 (MALME-3M melanoma): 4.06 µM | TGI (MALME-3M melanoma): 15.4 µM | GI50 (OVCAR-5 ovarian): 10.2 µM | TGI (OVCAR-5 ovarian): 21.9 µM | GI50 (UO-31 renal): 5.25 µM | TGI (UO-31 renal): 16.9 µM | GI50 (RXF 393 renal): 1.68 µM | TGI (RXF 393 renal): 4.57 µM | GI50 (SNB-75 CNS): 9.53 µM | TGI (SNB-75 CNS): 21.2 µM | GI50 (KM12 colon): 5.26 µM | TGI (KM12 colon): 18.3 µM | GI50 (CCRF-CEM leukemia): 2.24 µM | TGI (CCRF-CEM leukemia): 4.11 µM | GI50 (UACC-257 melanoma): 7.05 µM | TGI (UACC-257 melanoma): 19.8 µM | GI50 (HCC-2998 colon): 4.56 µM | TGI (HCC-2998 colon): 10.3 µM | GI50 (SR leukemia): 1.65 µM | TGI (SR leukemia): 3.17 µM | GI50 (NCI-H23 lung): 6.12 µM | TGI (NCI-H23 lung): 18.6 µM | GI50 (CAKI-1 renal): 5.16 µM | TGI (CAKI-1 renal): 17.7 µM | GI50 (OVCAR-4 ovarian): 3.24 µM | TGI (OVCAR-4 ovarian): 14.5 µM | GI50 (BT-549 breast): 4.01 µM | TGI (BT-549 breast): 13.1 µM | GI50 (HOP-62 NSCLC): 9.69 µM | TGI (HOP-62 NSCLC): 21.4 µM | GI50 (NCI-H322M lung): 4.58 µM | TGI (NCI-H322M lung): 16.6 µM | GI50 (HT29 colon): 12 µM | TGI (HT29 colon): 24.5 µM | GI50 (PC-3 prostate): 3.94 µM | TGI (PC-3 prostate): 14.4 µM | GI50 (NCI-H460 NSCLC): 2.9 µM | TGI (NCI-H460 NSCLC): 10.3 µM | GI50 (NCI-H522 lung): 2.3 µM | TGI (NCI-H522 lung): 6.5 µM | GI50 (SF-539 CNS): 5.63 µM | TGI (SF-539 CNS): 18.4 µM | GI50 (MDA-MB-231 breast): 3.36 µM | TGI (MDA-MB-231 breast): 13.5 µM | GI50 (COLO 205 colon): 11.5 µM | TGI (COLO 205 colon): 24 µM | GI50 (HCT-15 colon): 3.84 µM | TGI (HCT-15 colon): 11.8 µM | GI50 (SNB-19 CNS): 7.07 µM | TGI (SNB-19 CNS): 19.3 µM | GI50 (NCI-H226 lung): 8.98 µM | TGI (NCI-H226 lung): 21.1 µM | GI50 (MCF7 breast): 3.87 µM | TGI (MCF7 breast): 15.4 µM | GI50 (HCT-116 colon): 3.71 µM | TGI (HCT-116 colon): 12.7 µM | GI50 (OVCAR-3 ovarian): 2.86 µM | TGI (OVCAR-3 ovarian): 10.6 µM | GI50 (M14 melanoma): 6.4 µM | TGI (M14 melanoma): 19 µM | GI50 (MDA-MB-435 melanoma): 7.4 µM | TGI (MDA-MB-435 melanoma): 20.2 µM | GI50 ([…]-0 renal): 3.74 µM | TGI (786-0 renal): 12.6 µM | GI50 (OVCAR-8 ovarian): 3.73 µM | TGI (OVCAR-8 ovarian): 14.1 µM | GI50 (K-562 leukemia): 3.68 µM | TGI (K-562 leukemia): 13.5 µM | GI50 (MDA-MB-468 breast): 2.08 µM | TGI (MDA-MB-468 breast): 7.66 µM | GI50 (SF-268 CNS): 4.51 µM | TGI (SF-268 CNS): 15.2 µM | GI50 (HL-60(TB) leukemia): 1.55 µM | TGI (HL-60(TB) leukemia): 2.91 µM | GI50 (MOLT-4 leukemia): 1.69 µM | TGI (MOLT-4 leukemia): 3.12 µM | GI50 (SF-295 CNS): 10.5 µM | TGI (SF-295 CNS): 22.4 µM | GI50 (IGROV1 ovarian): 3.62 µM | TGI (IGROV1 ovarian): 12.2 µM | GI50 (SW-620 colon): 10.2 µM | TGI (SW-620 colon): 22 µM | GI50 (LOX IMVI melanoma): 3.87 µM | TGI (LOX IMVI melanoma): 15 µM | GI50 (UACC-62 melanoma): 4.96 µM | TGI (UACC-62 melanoma): 17.6 µM | GI50 (ACHN renal): 6.99 µM | TGI (ACHN renal): 19.7 µM | GI50 (SK-OV-3 ovarian): 6.15 µM | TGI (SK-OV-3 ovarian): 18.4 µM
